Literature values as cited in US20260207569A1, “LPA1 ANTAGONISTS FOR TREATING INTERSTITIAL LUNG DISEASE” (Bristol-Myers Squibb Company, priority 2022, published 2026).

Columns and labels:
patients with IPF = conditions: cited from earlier work
patients with PPF = conditions: 52-week study period; cited from earlier work

SMILES | Effect on decline in lung function (patients with IPF) | Progression of lung fibrosis (annual rate of decline in FVC) vs placebo (patients with PPF)
COC(=O)c1ccc2c(c1)NC(=O)/C2=C(\Nc1ccc(N(C)C(=O)CN2CCN(C)CC2)cc1)c1ccccc1 [nintedanib] | significantly reduce the decline in lung function | slower progression of lung fibrosis than those who received placebo
Cc1ccc(=O)n(-c2ccccc2)c1 [pirfenidone] | significantly reduce the decline in lung function | 
